The text below walks through data of patent US12116461B2, “Host-guest interactions for pa superstructure formation” (Northwestern University, priority 2020, dated 2024).

Series [1] in a line: Thixotropy interval study (before/after high shear). The series is classed as physicochemical. The protocol:
(§1) PA materials were prepared and annealed using methods described in section 2.1.1. An Anton Paar MCR302 Rheometer with a 25 mm cone plate was used for all rheological studies. 150 μL of PA liquid was placed on the sample stage. For experiments using Free Adamantane, 30 μL of either 1 mM or 2 mM adamantane solution (prepared as described in section 2.1.3) was added in droplets to the top plunger. The plunger was then lowered to the measuring position and a humidity collar was added during the “sample trim” phase to prevent sample evaporation during the measurement. The sample was equilibrated for 30 minutes with a constant angular frequency of 10 rad/s and 0.1% strain. The storage and loss modulus were recorded. For thixotropy studies, the sample was applied to the stage as previously mentioned. The first and third interval consisted of 10, 6 second points with an oscillating shear strain of 0.1% and angular frequency of 10 rad/s. The storage and loss modulus were plotted against time. The second interval consisted of 10, 1 second points with a constant shear rate of 100 s^−1. The viscosity was plotted against time. For recovery experiments, G′ and G″ were measured during alternating intervals of low and high strain. The low strain interval was 200 seconds at 0.5% strain and the high strain interval was 50 seconds at 50% strain.

A short description of series [2]: Rheological measurement of storage modulus. The series is classed as physicochemical. Conditions: no free adamantane added. The protocol: as §1
Series [3] is described as follows: 1H-NMR titration, association constant of β-cyclodextrin with 1-adamantaneacetic acid. Conditions: 1:1 host-guest binding model; 125 mM NaCl, 3 mM KCl buffer pH 7.2-7.4, 25° C. The protocol: The association constant for the binding between 1-adamantaneacetic acid and β-cyclodextrin was measured in 125 mM NaCl and 3 mM KCl buffer at pH 7.2-7.4. In a typical titration experiment, small amounts of a “guest solution” (100 mM 1-adamantaneacetic acid and 3.5 mM β-cyclodextrin in deuterated buffer) were added to approximately 0.8 ml of “host solution” (3.5 mM β-cyclodextrin in deuterated buffer) until at least 5 equiv of “guest” molecules were added. 1H-NMR spectra were obtained at 25° C. upon each addition of the “guest” solution and a binding isotherm was constructed by monitoring the protons on 1-adamantaneacetic acid.
The binding isotherms were fit to a standard 1:1 host-guest binding model (Eq. 1-3) where [HG] is the concentration of host-guest complex, [H]0 is the total concentration of “host” molecules, [G]0 is the total concentration of “guest” molecules, do is the proton peak position at [HG]/[H]0=0, δ is the proton peak position measured at different values of [HG]/[H]0, and δ∞ is a fitting parameter. All spectra were obtained with a X500 Bruker Avance III HD system equipped with a TXO Prodigy probe and analyzed with the MestreNova (Mestrelab Research) software.

Where a SMILES comes first, the peptide text is derived from it. The star is where a group is joined. Palmitoyl = CCCCCCCCCCCCCCCC(=O)*

`CCCCCCCCCCCCCCCC(=O)N[C@H](C(=O)N[C@H](C(=O)N[C@@H](C)C(=O)N[C@@H](C)C(=O)N[C@@H](CCC(=O)O)C(=O)N[C@@H](CCC(=O)O)C(N)=O)C(C)C)C(C)C` [E2 PA, C16V2A2E2] (Palmitoyl-VVAAEE-NH2): the “G′ after high shear” value in series [1] (after high shear) came out at 26.8 Pa. The “G′ before high shear” value in series [1] (before high shear) turned out to be 43.9 Pa. The “storage modulus (G′)” value in series [2] is 20±12 Pa.

For the compound `OC[C@H]1O[C@@H]2O[C@H]3[C@H](O)[C@@H](O)[C@@H](O[C@H]4[C@H](O)[C@@H](O)[C@@H](O[C@H]5[C@H](O)[C@@H](O)[C@@H](O[C@H]6[C@H](O)[C@@H](O)[C@@H](O[C@H]7[C@H](O)[C@@H](O)[C@@H](O[C@H]8[C@H](O)[C@@H](O)[C@@H](O[C@H]1[C@H](O)[C@H]2O)O[C@@H]8CO)O[C@@H]7CO)O[C@@H]6CO)O[C@@H]5CO)O[C@@H]4CO)O[C@@H]3CO` [β-cyclodextrin], the “association constant (Ka)” value in series [3] was 395 M⁻¹.
